Experimental data taken from BindingDB's records for doi:10.1021/jm034056q (Wyeth Research, 2003).

Molecular target: Beta-lactamase TEM (Escherichia coli) (UniProt P62593)
Assay: In vitro inhibitory activity against Beta-lactamase TEM-1 of class A enzyme

Chain of Beta-lactamase TEM (Escherichia coli) (P62593 whole entry, looked up): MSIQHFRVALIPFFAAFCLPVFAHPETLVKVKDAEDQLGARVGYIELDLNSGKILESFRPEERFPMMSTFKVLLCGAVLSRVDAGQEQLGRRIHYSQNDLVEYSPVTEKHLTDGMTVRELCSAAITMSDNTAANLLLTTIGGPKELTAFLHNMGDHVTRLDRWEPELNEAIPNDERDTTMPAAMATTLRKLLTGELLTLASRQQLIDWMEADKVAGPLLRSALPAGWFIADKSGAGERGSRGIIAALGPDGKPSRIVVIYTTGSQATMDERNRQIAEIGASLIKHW

Q: For `CC(C)(C)[Si](C)(C)O[C@H]1C[C@]12C(=O)N1[C@@H](C(=O)O)C(C)(C)S(=O)(=O)[C@@H]12` [(2S,5R,6R)-2'-(tert-Butyl-dimethyl-silanyl-oxy)-3,3-dimethyl-7-oxo-4-thia-1-azaspiro[bicyclo[3.2.0]heptane-6,1'-cyclopropane]-2-carboxylic acid 4,4-dioxide], which IC50 is on record?
A: 650 nM

Q: `CC1(C)[C@H](C(=O)O)N2C(=O)[C@@]3(C[C@H]3OC3CCCCC3)[C@H]2S1(=O)=O` [2'-(cyclohexyloxy)-3,3-dimethyl-7-oxo-4-thia-1-azaspiro[bicyclo[3.2.0]heptane-6,1'-cyclopropane]-2-carboxylic acid 4,4-dioxide] was tested. Which IC50 did it give?
A: > 13000 nM

Q: Which IC50 does the source give for `CC(C)(C)[Si](C)(C)O[C@@H]1C[C@@]12C(=O)N1[C@@H](C(=O)O)C(C)(C)S(=O)(=O)[C@@H]12` [(2S,5R,6R)-2'-(tert-Butyl-dimethyl-silanyl-oxy)-3,3-dimethyl-7-oxo-4-thia-1-azaspiro[bicyclo[3.2.0]heptane-6,1'-cyclopropane]-2-carboxylic acid 4,4-dioxide] here?
A: 12000 nM

Q: With `CC(C)(C)[Si](C)(C)O[C@H]1C[C@@]12C(=O)N1[C@@H](C(=O)O)C(C)(C)S(=O)(=O)[C@@H]12` [(2R,5R,6R)-2'-(tert-Butyl-dimethyl-silanyl-oxy)-3,3-dimethyl-7-oxo-4-thia-1-azaspiro[bicyclo[3.2.0]heptane-6,1'-cyclopropane]-2-carboxylic acid 4,4-dioxide] as the compound, how does the IC50 read?
A: 17000 nM

Q: `CC1(C)[C@H](C(=O)O)N2C(=O)[C@@]3(C[C@@H]3OC3CCCCC3)[C@H]2S1(=O)=O` [(2S,5R,6S)-2'-(cyclohexyloxy)-3,3-dimethyl-7-oxo-4-thia-1-azaspiro[bicyclo[3.2.0]heptane-6,1'-cyclopropane]-2-carboxylic acid 4,4-dioxide] was tested. Which IC50 did it give?
A: 1700 nM

Q: With `CC1(C)[C@H](C(=O)O)N2C(=O)[C@]3(C[C@@H]3OC3CCCCC3)[C@H]2S1(=O)=O` [(2S,5R,6R)-2'-(cyclohexyloxy)-3,3-dimethyl-7-oxo-4-thia-1-azaspiro[bicyclo[3.2.0]heptane-6,1'-cyclopropane]-2-carboxylic acid 4,4-dioxide] as the compound, how does the IC50 read?
A: 510 nM
